Data as given in ChEMBL document CHEMBL2150953, “Synthesis and antiproliferative activity of helonioside A, 3',4',6'-tri-O-feruloylsucrose, lapathoside C and their analogs” (Eur J Med Chem, 2012).
pIC50: −log10 of the molar value.

Assays:
Format in all cases: functional, cell-based
HeLa [1] = test: Cytotoxicity against human HeLa cells after 24 hrs by MTS assay
HeLa [2] = test: Cytotoxicity against human HeLa cells by MTS assay; conditions: TDE = time-dependent effect
HeLa [3] = test: Cytotoxicity against human HeLa cells after 48 hrs by MTS assay

SMILES | pIC50 (HeLa [1]) | Activity (HeLa [2]) | pIC50 (HeLa [3])
COc1cc(/C=C/C(=O)OC[C@H]2O[C@@](CO)(O[C@H]3O[C@H](CO)[C@@H](O)[C@H](OC(=O)/C=C/c4ccc(O)c(OC)c4)[C@H]3O)[C@@H](OC(=O)/C=C/c3ccc(O)c(OC)c3)[C@@H]2OC(=O)/C=C/c2ccc(O)c(OC)c2)ccc1O | 5.10 | tde | 5.79
COc1cc(/C=C/C(=O)OC[C@H]2O[C@@](CO)(O[C@H]3O[C@H](CO)[C@@H](O)[C@H](O)[C@H]3O)[C@@H](OC(=O)/C=C/c3ccc(OC(C)=O)c(OC)c3)[C@@H]2OC(=O)/C=C/c2ccc(OC(C)=O)c(OC)c2)ccc1OC(C)=O |  |  | 5.77
COc1cc(/C=C/C(=O)OC[C@H]2O[C@]3(COC(C)(C)O[C@H]4[C@H](O[C@@H]5COC(C)(C)O[C@H]5[C@@H]4O)O3)[C@@H](O)[C@@H]2O)ccc1OC(C)=O |  |  | < 4.00
COc1cc(/C=C/C(=O)OC[C@H]2O[C@]3(COC(C)(C)O[C@H]4[C@H](O[C@@H]5COC(C)(C)O[C@H]5[C@@H]4OC(=O)/C=C/c4ccc(OC(C)=O)c(OC)c4)O3)[C@@H](OC(=O)/C=C/c3ccc(OC(C)=O)c(OC)c3)[C@@H]2OC(=O)/C=C/c2ccc(OC(C)=O)c(OC)c2)ccc1OC(C)=O |  |  | 5.49
COc1cc(/C=C/C(=O)OC[C@H]2O[C@H](O[C@]3(CO)O[C@H](COC(=O)/C=C/c4ccc(OC(C)=O)cc4)[C@@H](O)[C@@H]3OC(=O)/C=C/c3ccc(OC(C)=O)cc3)[C@H](O)[C@@H](O)[C@@H]2O)ccc1OC(C)=O |  |  | < 4.00
CC(=O)Oc1ccc(/C=C/C(=O)OC[C@H]2O[C@@](CO)(O[C@H]3O[C@H](COC(=O)/C=C/c4ccc(OC(C)=O)cc4)[C@@H](O)[C@H](OC(=O)/C=C/c4ccc(OC(C)=O)cc4)[C@H]3O)[C@@H](OC(=O)/C=C/c3ccc(OC(C)=O)cc3)[C@@H]2O)cc1 |  |  | 5.73
COc1cc(/C=C/C(=O)OC[C@H]2O[C@@](CO)(O[C@H]3O[C@H](CO)[C@@H](O)[C@H](O)[C@H]3O)[C@@H](OC(=O)/C=C/c3ccc(OC(C)=O)c(OC)c3)[C@@H]2O)ccc1OC(C)=O |  |  | < 4.00
COc1cc(/C=C/C(=O)OC[C@H]2O[C@H](O[C@]3(CO)O[C@H](COC(=O)/C=C/c4ccc(O)cc4)[C@@H](O)[C@@H]3OC(=O)/C=C/c3ccc(O)cc3)[C@H](O)[C@@H](O)[C@@H]2O)ccc1O [LAPATHOSIDE C] |  |  | 4.90
COc1cc(/C=C/C(=O)OC[C@H]2O[C@H](O[C@]3(CO)O[C@H](COC(=O)/C=C/c4ccc(OC(C)=O)cc4)[C@@H](O)[C@@H]3OC(=O)/C=C/c3ccc(OC(C)=O)cc3)[C@H](O)[C@@H](OC(=O)/C=C/c3ccc(OC(C)=O)c(OC)c3)[C@@H]2O)ccc1OC(C)=O |  |  | 5.50
COc1cc(/C=C/C(=O)OC[C@H]2O[C@@](CO)(O[C@H]3O[C@H](CO)[C@@H](O)[C@H](O)[C@H]3O)[C@@H](OC(=O)/C=C/c3ccc(O)c(OC)c3)[C@@H]2OC(=O)/C=C/c2ccc(O)c(OC)c2)ccc1O | 4.26 | tde | 4.65
O=C(/C=C/c1ccc(O)cc1)OC[C@H]1O[C@@](CO)(O[C@H]2O[C@H](COC(=O)/C=C/c3ccc(O)cc3)[C@@H](O)[C@H](OC(=O)/C=C/c3ccc(O)cc3)[C@H]2O)[C@@H](OC(=O)/C=C/c2ccc(O)cc2)[C@@H]1O |  |  | 5.77
COc1cc(/C=C/C(=O)OC[C@H]2O[C@]3(COC(C)(C)O[C@H]4[C@H](O[C@@H]5COC(C)(C)O[C@H]5[C@@H]4O)O3)[C@@H](OC(=O)/C=C/c3ccc(O)c(OC)c3)[C@@H]2OC(=O)/C=C/c2ccc(O)c(OC)c2)ccc1O |  |  | 5.38
COc1cc(/C=C/C(=O)OC[C@H]2O[C@]3(COC(C)(C)O[C@H]4[C@H](O[C@@H]5COC(C)(C)O[C@H]5[C@@H]4O)O3)[C@@H](OC(=O)/C=C/c3ccc(OC(C)=O)c(OC)c3)[C@@H]2O)ccc1OC(C)=O | 4.55 | tde | 5.22
CC[C@@]1(O)C(=O)OCc2c1cc1n(c2=O)Cc2cc3ccccc3nc2-1 [CAMPTOTHECIN] |  |  | 6.40
COc1cc(/C=C/C(=O)OC[C@H]2O[C@H](O[C@]3(CO)O[C@H](COC(=O)/C=C/c4ccc(O)cc4)[C@@H](O)[C@@H]3OC(=O)/C=C/c3ccc(O)cc3)[C@H](O)[C@@H](OC(=O)/C=C/c3ccc(O)c(OC)c3)[C@@H]2O)ccc1O |  |  | 5.78
COc1cc(/C=C/C(=O)OC[C@H]2O[C@@](CO)(O[C@H]3O[C@H](CO)[C@@H](O)[C@H](O)[C@H]3O)[C@@H](OC(=O)/C=C/c3ccc(O)c(OC)c3)[C@@H]2O)ccc1O [HELONIOSIDE A] |  |  | < 4.00
COc1cc(/C=C/C(=O)OC[C@H]2O[C@H](O[C@]3(CO)O[C@H](COC(=O)/C=C/c4ccc(O)cc4)[C@@H](O)[C@@H]3OC(=O)/C=C/c3ccc(O)cc3)[C@H](O)[C@@H](OC(=O)/C=C/c3ccc(O)cc3)[C@@H]2O)ccc1O |  |  | 5.51
COc1cc(/C=C/C(=O)OC[C@H]2O[C@]3(COC(C)(C)O[C@H]4[C@H](O[C@@H]5COC(C)(C)O[C@H]5[C@@H]4O)O3)[C@@H](OC(=O)/C=C/c3ccc(OC(C)=O)c(OC)c3)[C@@H]2OC(=O)/C=C/c2ccc(OC(C)=O)c(OC)c2)ccc1OC(C)=O |  |  | 6.80
